# Results from US9663526B2, “Aminopyrimidinyl compounds” (Pfizer Inc., priority 2014, dated 2017).
# Where two headings read alike, the source gives them in different places.
# What was measured:
# Type in all cases: biochemical
# [1] = target: recombinant human kinase domain of JAK3 (Homo sapiens (Human), UniProt P52333); assay: JAK Caliper enzyme assay at 1 mM ATP (JAK3); conditions: 1 mM ATP; read-out: IC50 (nM) JAK3;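 further: microfluidic mobility-shift readout of synthetic peptide phosphorylation, percent product converted from peak heights, normalized to DMSO-only wells as uninhibited baseline, room temperature incubation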
# recombinant human kinase domain of JAK3, sequence (P52333 822-1111): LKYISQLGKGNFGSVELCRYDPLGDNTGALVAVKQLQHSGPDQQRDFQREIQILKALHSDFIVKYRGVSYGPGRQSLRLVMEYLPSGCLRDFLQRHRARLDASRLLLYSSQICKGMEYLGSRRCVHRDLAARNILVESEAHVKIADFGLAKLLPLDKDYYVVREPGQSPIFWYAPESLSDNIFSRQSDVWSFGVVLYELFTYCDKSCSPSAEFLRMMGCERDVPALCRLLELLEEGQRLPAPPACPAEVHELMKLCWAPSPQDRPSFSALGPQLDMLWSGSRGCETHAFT
# [2] = target: recombinant human kinase domain of JAK1 (Homo sapiens (Human), UniProt P23458); assay: JAK Caliper enzyme assay at 1 mM ATP (JAK1);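 further: microfluidic mobility-shift readout of synthetic fluorescent peptide phosphorylation, percent product converted from peak height, inhibition relative to DMSO-only wells as uninhibited baseline, room temperature incubation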
# recombinant human kinase domain of JAK1, sequence (P23458 875-1153): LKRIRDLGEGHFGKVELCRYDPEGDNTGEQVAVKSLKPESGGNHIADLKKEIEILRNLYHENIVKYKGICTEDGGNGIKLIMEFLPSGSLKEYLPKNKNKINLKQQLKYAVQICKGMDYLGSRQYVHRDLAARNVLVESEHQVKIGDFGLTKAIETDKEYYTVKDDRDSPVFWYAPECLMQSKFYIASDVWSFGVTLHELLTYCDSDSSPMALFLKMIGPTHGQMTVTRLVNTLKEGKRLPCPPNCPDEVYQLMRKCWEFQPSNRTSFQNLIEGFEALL
# [3] = target: recombinant human kinase domain of JAK2 (Homo sapiens (Human), UniProt O60674); assay: JAK Caliper enzyme assay at 1 mM ATP (JAK2);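 further: microfluidic mobility-shift read-out of fluorescent synthetic peptide phosphorylation, percent product converted from peak heights, room temperature, DMSO-only wells as uninhibited baseline, inhibition curve fit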
# recombinant human kinase domain of JAK2, sequence (O60674 849-1124): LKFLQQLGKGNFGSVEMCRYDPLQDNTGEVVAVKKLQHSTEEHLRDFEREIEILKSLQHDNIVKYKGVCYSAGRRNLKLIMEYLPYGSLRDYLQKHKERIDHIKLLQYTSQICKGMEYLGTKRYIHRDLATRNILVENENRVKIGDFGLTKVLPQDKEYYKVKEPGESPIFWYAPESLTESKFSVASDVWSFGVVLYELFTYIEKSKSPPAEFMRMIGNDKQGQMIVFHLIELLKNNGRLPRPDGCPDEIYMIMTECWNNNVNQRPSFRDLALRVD
# [4] = target: recombinant human kinase domain of TYK2 (Homo sapiens (Human), UniProt P29597); assay: JAK Caliper enzyme assay at 1 mM ATP (TYK2); conditions: 1 mM ATP; read-out: IC50 (nM) TYK2;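 further: microfluidic mobility-shift readout of synthetic peptide phosphorylation by TYK2, tuned to 20–30% conversion at room temperature, reaction stopped with EDTA, DMSO-only wells as uninhibited baseline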
# recombinant human kinase domain of TYK2, sequence (P29597 897-1176): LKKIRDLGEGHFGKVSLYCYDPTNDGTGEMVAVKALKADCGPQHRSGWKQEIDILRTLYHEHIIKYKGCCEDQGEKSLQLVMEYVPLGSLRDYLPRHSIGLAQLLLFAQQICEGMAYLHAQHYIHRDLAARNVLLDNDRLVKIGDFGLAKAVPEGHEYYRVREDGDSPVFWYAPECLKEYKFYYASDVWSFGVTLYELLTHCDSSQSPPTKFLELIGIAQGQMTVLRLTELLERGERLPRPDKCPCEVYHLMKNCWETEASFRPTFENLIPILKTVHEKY
# [5] = 1 mM ATP, read-out: IC50 (nM) JAK1
Compound,IC50 [1],"IC50 [2, 5]",IC50 [3],IC50 [4],IC50 [2]
"O=C(N[C@]12C[C@H]1CN(c1nc(Nc3cnn(CCO)c3)ncc1Cl)C2)C1CC1 [Example 108, N-[(1R,5S)-3-(5-chloro-2-{[1-(2-hydroxyethyl)-1H-pyrazol-4-yl]amino}pyrimidin-4-yl)-3-azabicyclo[3.1.0]hex-1-yl]cyclopropanecarboxamide]",3960 nM,323 nM,1490 nM,675 nM,
"Cn1cc(Nc2nccc(N3C[C@H]4CC[C@@H](C3)N4C(N)=O)n2)cn1 [Example 76, (1R,5S)-3-{2-[(1-methyl-1H-pyrazol-4-yl)amino]pyrimidin-4-yl}-3,8-diazabicyclo[3.2.1]octane-8-carboxamide]",> 10000 nM,537 nM,1480 nM,662 nM,
"CNC(=O)c1ncc(Nc2nccc(N3C[C@H]4CC[C@@H](C3)N4C[C@H]3CC3(F)F)n2)cc1C [Example 68, 5-({4-[(1R,5S)-8-{[(1R)-2,2-difluorocycloproDyl]methyl}-3,8-diazabicyclo[3.2.1]oct-3-yl]pyrimidin-2-yl}amino)-N,3-dimethylpyridine-2-carboxamide]",> 10000 nM,85 nM,188 nM,22 nM,
"CCNC(=O)c1ccc(Nc2nccc(N3C[C@H]4CC[C@@H](C3)N4C(=O)CC#N)n2)cc1 [Example 13, 4-({4-[(1R,5S)-8-(cyanoacetyl)-3,8-diazabicyclo[3.2.1]oct-3-yl]pyrimidin-2-yl}amino)-N-ethylbenzamide]",> 10000 nM,41 nM,199 nM,,
"Cn1cc(Nc2nccc(N3C[C@H]4CC[C@@H](C3)N4C(=O)[C@@H]3C[C@@H]3F)n2)cn1 [Example 43, [(1S,2S)-2-fluorocyclopropyl][(1R,5S)-3-{2-[(1-methyl-1H-pyrazol-4-yl)amino]pyrimidin-4-yl}-3,8-diazabicyclo[3.2.1]oct-8-yl]methanone]",> 10000 nM,902 nM,2840 nM,474 nM,
"C[C@@H]1[C@@H]2CN(c3nc(Nc4cnc(CO)c(Cl)c4)ncc3F)C[C@]12NC(=O)C1CC1 [Example 105, N-[(1S,5R,6R)-3-(2-{[5-chloro-6-(hydroxymethyl)pyridin-3-yl]amino}-5-fluoropyrimidin-4-yl)-6-methyl-3-azabicyclo[3.1.0]hex-1-yl]cyclopropanecarboxamide]",> 10000 nM,1570 nM,6100 nM,152 nM,
"O=C(C1CC1)N1[C@@H]2CC[C@H]1CN(c1nc(Nc3ccnnc3)ncc1F)C2 [Example 1, cyclopropyl{(1R,5S)-3-[5-fluoro-2-(pyridazin-4-ylamino)pyrimidin-4-yl]-3,8-diazabicyclo[3.2.1]oct-8-yl}methanone]",> 10000 nM,2730 nM,> 10000 nM,1100 nM,
"CCNC(=O)c1ccc(Nc2ncc(F)c(N3C[C@H]4CC[C@@H](C3)N4C(=O)C(F)(F)F)n2)cc1C [Example 72, N-ethyl-4-({5-fluoro-4-[8-(trifluoroacetyl)-3,8-diazabicyclo[3.2.1]oct-3-yl]pyrimidin-2-yl}amino)-2-methylbenzamide]",411 nM,81 nM,151 nM,,
"O=C([C@H]1CC1(F)F)N1[C@@H]2CC[C@H]1CN(c1ccnc(Nc3cn[nH]c3)n1)C2 [Example 50, ((1R,5S)-3-(2-((1H-Pyrazol-4-yl)amino)pyrimidin-4-yl)-3,8-diazabicyclo[3.2.1]octan-8-yl)((R)-2,2-difluorocyclopropyl)methanone]",> 10000 nM,478 nM,3420 nM,,
"NC(=O)c1ncc(Nc2nccc(N3C[C@H]4CC[C@@H](C3)N4C(=O)[C@@H]3CC3(F)F)n2)cc1F [Example 117, 5-({4-[(1R,5S)-8-{[(1S)-2,2-Difluorocyclopropyl]carbonyl}-3,8-diazabicyclo[33.2.1]oct-3-yl]pyrimidin-2-yl}amino)-3-fluoropyridine-2-carboxamide]",> 10000 nM,114 nM,452 nM,,
"CNC(=O)c1ncc(Nc2ncc(F)c(N3C[C@@H]4[C@H](C)[C@]4(NC(=O)C4CC4)C3)n2)cc1C [Example 101, 5-[(4-{(1R,5S,6S)-1-[(cyclopropylcarbonyl)amino]-6-methyl-3-azabicyclo[3.1.0]hex-3-yl}-5-fluoropyrimidin-2-yl)amino]-N,3-dimethylpyridine-2-carboxamide]",> 10000 nM,1880 nM,2910 nM,663 nM,
"CNC(=O)c1ncc(Nc2nccc(N3C[C@H]4CC[C@@H](C3)N4C(=O)[C@H]3CC3(F)F)n2)cc1F [Example 28, 5-({4-[(1R,5S)-8-{[(1R)-2,2-difluorocyclopropyl]carbonyl}-3,8-diazabicyclo[3.2.1]oct-3-yl]pyrimidin-2-yl}amino)-3-fluoro-N-methylpyridine-2-carboxamide]",> 10000 nM,,8150 nM,736 nM,1370 nM
"CCNC(=O)c1ccc(Nc2ncc(F)c(N3CC4CC(C3)N4C(=O)C(F)(F)F)n2)cc1C [Example 116, N-ethyl-4-({5-fluoro-4-[6-(trifluoroacetyl)-3,6-diazabicyclo[3.1.1]hept-3-yl]pyrimidin-2-yl}amino)-2-methylbenzamide]",9820 nM,1470 nM,,20 nM,
"C[C@@H]1[C@@H]2CN(c3nc(Nc4ccc([C@@H](C)CO)nc4)ncc3F)C[C@]12NC(=O)C1CC1 (single isomer, unassigned) [Example 103]",> 10000 nM,1740 nM,3460 nM,150 nM,
"CNC(=O)c1cc(Nc2nccc(N3C[C@H]4CC[C@@H](C3)N4C(=O)[C@@H]3CC3(F)F)n2)cc(CO)n1 [Example 41, 4-({4-[(1R,5S)-8-{[(1S)-2,2-difluorocyclopropyl]carbonyl}-3,8-diazabicyclo[3.2.1]oct-3-yl]pyrimidin-2-yl}amino)-6-(hydroxymethyl)-N-methylpyridine-2-carboxamide]",> 10000 nM,201 nM,279 nM,84 nM,
"CNC(=O)c1ncc(Nc2nccc(N3C[C@H]4CC[C@@H](C3)N4CC3(C)COC3)n2)cc1C [Example 54, N,3-dimethyl-5-[(4-{(1R,5S)-8-[(3-methyloxetan-3-yl)methyl]-3,8-diazabicyclo[3.2.1]oct-3-yl}pyrimidin-2-yl)amino]pyridine-2-carboxamide]",4290 nM,19 nM,,8 nM,
"Cn1cc(Nc2nccc(N3C[C@H]4CC[C@@H](C3)N4C(=O)[C@H]3C[C@H]3C#N)n2)cn1 [Example 38, (1R,2S)-2-{[(1R,5S)-3-{2-[(1-methyl-1H-pyrazol-4-yl)amino]pyrimidin-4-yl}-3,8-diazabicyclo[3.2.1]oct-8-yl]carbonyl}cyclopropanecarbonitrile]",> 10000 nM,707 nM,2330 nM,427 nM,
"CCNC(=O)c1ccc(Nc2ncc(F)c(N3C[C@H]4CC[C@@H](C3)N4C(=O)OC(C)(C)C)n2)cc1C [Example 73, tert-butyl 3-(2-{[4-(ethylcarbamoyl)-3-methylphenyl]amino}-5-fluoropyrimidin-4-yl)-3,8-diazabicyclo[3.2.1]octane-8-carboxylate]",1770 nM,260 nM,170 nM,17 nM,
"O=C(C1CC1)N1[C@@H]2CC[C@H]1CN(c1ccnc(Nc3cnsc3)n1)C2 [Example 52, cyclopropyl{(1R,5S)-3-[2-(1,2-thiazol-4-ylamino)pyrimidin-4-yl]-3,8-diazabicyclo[3.2.1]oct-8-yl}methanone]",> 10000 nM,172 nM,1240 nM,93 nM,
"CNC(=O)c1ncc(Nc2nccc(N3C[C@H]4CC[C@@H](C3)N4C[C@@H]3CC3(F)F)n2)cc1C (single isomer, unassigned) [Example 67]",> 10000 nM,418 nM,973 nM,108 nM,
"C[C@@H]1[C@@H]2CN(c3nc(Nc4cnc([C@@H](C)O)c(Cl)c4)ncc3F)C[C@]12NC(=O)C1CC1 [Example 106, N-{(1S,5R,6R)-3-[2-({5-chloro-6-[(1R)-1-hydroxyethyl]pyridin-3-yl}amino)-5-fluoropyrimidin-4-yl]-6-methyl-3-azabicyclo[3.1.0]hex-1-yl}cyclopropanecarboxamide]",> 10000 nM,,9410 nM,,
"Cn1cc(Nc2nccc(N3C[C@H]4CC[C@@H](C3)N4C(=O)NCCC#N)n2)cn1 [Example 47, (1R,5S)—N-(2-cyanoethyl)-3-{2-[(1-methyl-1H-pyrazol-4-yl)amino]pyrimidin-4-yl}-3,8-diazabicyclo[3.2.1]octane-8-carboxamide]",> 10000 nM,42 nM,,65 nM,
"Cc1cc(Nc2nccc(N3C[C@H]4CC[C@@H](C3)N4C(=O)C3CC3(F)F)n2)cnc1C(N)=O (stereo partly drawn) [Example 34, 5-[(4-{(1R,5S)-8-[(2,2-difluorocyclopropyl)carbonyl]-3,8-diazabicyclo[3.2.1]oct-3-yl}pyrimidin-2-yl)amino]-3-methylpyridine-2-carboxamide]",> 10000 nM,152 nM,377 nM,,
"N#CC1(CN2[C@@H]3CC[C@H]2CN(c2ccnc(Nc4cn[nH]c4)n2)C3)CC1 [Example 71, 1-({(1R,5S)-3-[2-(1H-pyrazol-4-ylamino)pyrimidin-4-yl]-3,8-diazabicyclo[3.2.1]oct-8-yl}methyl)cyclopropanecarbonitrile]",> 10000 nM,153 nM,,152 nM,
"NS(=O)(=O)c1ccc(Nc2ncc(F)c(N3C[C@H]4CC[C@@H](C3)N4C(=O)C3CC3)n2)cn1 [Example 4, 5-({4-[(1R,5S)-8-(cyclopropylcarbonyl)-3,8-diazabicyclo[3.2.1]oct-3-yl]-5-fluoropyrimidin-2-yl}amino)pyridine-2-sulfonamide]",> 10000 nM,659 nM,,176 nM,
